Test results published in patent US8492557B2, “Ester pro-drugs of [3-(1-(1H-imidazol-4-yl)ethyl)-2-methylphenyl] methanol” (Allergan, Inc., priority 2010, dated 2013).
pEC50: −log10 of the molar value. Like-named read-outs stand apart in the source and are kept apart here.

What was measured:
[1] = biological target: T1, human alpha 2A receptor (Homo sapiens, UniProt P08913); assay: FLIPR Ca+2 influx assay, a2A; type: cell-based; details: for a2A (eff): efficacy in brackets, norepinephrine is the standard full agonist, HEK 293 cells
T1 construct: expressed in transfected cells; host or cells: HEK 293
T1 sequence (P08913 1-465): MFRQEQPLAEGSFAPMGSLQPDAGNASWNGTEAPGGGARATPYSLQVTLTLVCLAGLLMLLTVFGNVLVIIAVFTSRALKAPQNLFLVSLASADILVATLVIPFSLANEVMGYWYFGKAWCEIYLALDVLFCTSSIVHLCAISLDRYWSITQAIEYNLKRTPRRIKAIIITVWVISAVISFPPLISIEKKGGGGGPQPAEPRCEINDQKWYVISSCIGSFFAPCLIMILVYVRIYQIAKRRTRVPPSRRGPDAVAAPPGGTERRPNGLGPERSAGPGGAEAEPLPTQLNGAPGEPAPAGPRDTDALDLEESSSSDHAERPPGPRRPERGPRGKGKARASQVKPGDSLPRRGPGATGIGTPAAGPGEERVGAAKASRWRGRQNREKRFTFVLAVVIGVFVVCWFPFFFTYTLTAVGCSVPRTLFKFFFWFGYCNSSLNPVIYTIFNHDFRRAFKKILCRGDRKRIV
Protocol: (§1) HEK 293 cells stably expressing the bovine α1A receptor, human alpha 2A receptor and the chimeric G protein Gqi5, are plated in poly-D-lysine coated 384-well plates at 20,000-40,000 cells per well and grown overnight in DMEM supplemented with 10% fetal bovine serum. For FLIPR (fluorometric image plate reader) evaluation, cells are washed twice with HBSS/HEPES Buffer (1× Hanks Buffered Salt Solution, 20 mM HEPES, pH 7.4) prior to the addition of Fluo-4-AM (4 uM Fluo-4-AM, 0.04% pluronic acid in HBSS/HEPES Buffer), a calcium-sensitive dye. Cells are loaded with dye for 40 minutes at 37° C., then washed 4 times with HBSS/HEPES Buffer. For both the agonist and antagonist assay, the test compounds are tested between 0.64 nM-10,000 nM.
(§2) For an agonist assay, the reaction is initiated by the addition of the appropriate dilutions of compounds and the transient calcium signal captured. The peak height of the calcium curve is determined and utilized for calculation of EC50 and efficacy using ActivityBase. Norepinephrine is the standard full agonist used for evaluating alpha-1 and alpha-2 receptor activity.
The residual norepinephrine peak height is compared to the non-antagonized norepinephrine peak height for the determination of % antagonism.

[2] = biological target: T2, bovine α1A receptor (Bos taurus, UniProt P18130); assay: FLIPR Ca+2 influx assay, a1A; type: cell-based; details: for a1A (eff): efficacy in brackets, norepinephrine is the standard full agonist, HEK 293 cells
T2 sequence (P18130 1-466): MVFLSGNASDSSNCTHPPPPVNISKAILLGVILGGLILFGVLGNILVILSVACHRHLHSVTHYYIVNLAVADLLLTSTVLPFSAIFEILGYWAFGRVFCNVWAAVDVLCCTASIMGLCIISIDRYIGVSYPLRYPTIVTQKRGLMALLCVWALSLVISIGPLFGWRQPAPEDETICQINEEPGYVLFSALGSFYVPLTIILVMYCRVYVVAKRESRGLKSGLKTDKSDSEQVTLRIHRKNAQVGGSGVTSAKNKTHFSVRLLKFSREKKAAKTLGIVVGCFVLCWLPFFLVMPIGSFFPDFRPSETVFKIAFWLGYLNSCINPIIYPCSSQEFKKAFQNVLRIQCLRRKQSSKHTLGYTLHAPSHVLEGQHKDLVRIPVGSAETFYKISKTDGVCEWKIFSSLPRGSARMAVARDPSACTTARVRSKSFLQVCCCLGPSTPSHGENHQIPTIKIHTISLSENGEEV
Protocol: as §1, §2
However, the antagonist blocks the transient calcium signal of the standard agonist norepinephrine in a dose-dependent manner. The residual norepinephrine peak height is compared to the non-antagonized norepinephrine peak height for the determination of % antagonism.

| SMILES | pEC50 [1] | a2A (eff) [1] | pEC50 [2] | a1A (eff) [2] | pEC50 ([2]; HEK 293 cells with chimeric G protein Gqi5, agonist assay, tested 0.64 nM-10,000 nM, n/a: Not active, read-out: a1A EC50) |
| --- | --- | --- | --- | --- | --- |
| Cc1c(CO)cccc1[C@H](C)c1c[nH]cn1 [(S)-[3-(1-(1H-imidazol-4-yl)ethyl)-2-methylphenyl]methanol] | 7.60 | 0.9 | 5.62 to 6.47 | 0.7 |  |
| Brc1c(NC2=NCCN2)ccc2nccnc12 [Brimonidine] |  | 0.95 |  | 0.3 | 5.62 to 6.22 |
